# Laboratory results: US20110262508A1, “ANTIMICROBIAL COMPOSITIONS, FORMULATIONS AND USES THEREOF” (priority 2007, published 2011)
# Where two headings read alike, the source gives them in different places. Square brackets hold non-standard residues; d marks the D form. Peptide text beside a SMILES is read from it.
# System: A. baumannii
# Type: cell-based
# Text: Broth dilution methods are e.g., described by Lorian (2007) In: Antibiotics in Laboratory Medicine, Fifth Edition; and In: Clinical and Laboratory Standards Institute, CLSI (formerly NCCLS), In: Methods for Dilution Antimicrobial Susceptibility Tests for Bacteria that Grow Aerobically—Approved Standard—Seventh Edition, CLSI document M7-A7, Villanova, Pa. (NCCLS; January 2006; Vol. 26 No. 2); and In: Clinical and Laboratory Standards Institute, CLSI (formerly NCCLS), Performance Standards for Antimicrobial Susceptibility Testing, Seventeenth Informational Supplement, M100-S17, Vol 27 No. 1 January 2007, all of which are incorporated herein by reference.
# The present inventors used such methods to quantitate activity in vitro of antimicrobial peptides of the invention against bacterial isolates, including laboratory strains and 50 clinical isolates of A. baumannii, and S. aureus ATCC Accession No. 2992. Briefly, small volumes of broth are dispensed in sterile, plastic microtiter trays, and 100 μl of serially-diluted antimicrobial peptide (0.1-64 μg) and 100 μl test organism (approximately 1×10^5 C.F.U.), are added. Following aerobic incubation overnight at 35±2° C. Control samples lacked peptide (Growth control), or lacked peptide and bacteria (Sterility control). The trays were examined visually and the minimal inhibitory concentration (MIC) of peptide required to inhibit bacterial growth were determined. The minimum bactericidal concentration (MBC) was estimated by sub-culturing the wells for which no bacterial growth was visible to the naked eye, to thereby determine a concentration of antimicrobial that reduces the original inoculum by at least about 99.9%.
# [1] = A. baumannii (Table 8), reduces original inoculum by at least about 99.9%
structure (smiles),measurement,setting,value
CC[C@H](C)[C@H](NC(=O)[C@H](C)NC(=O)[C@H](Cc1c[nH]c2ccccc12)NC(=O)[C@H](CCCNC(=N)N)NC(=O)[C@H](CC(C)C)NC(=O)[C@H](CO)NC(=O)CNC(=O)[C@H](C)NC(=O)[C@H](CCCNC(=N)N)NC(=O)[C@H](Cc1c[nH]cn1)NC(=O)[C@H](CC(=O)O)NC(=O)[C@@H](NC(=O)[C@@H]1CCCN1C(=O)[C@H](CCCNC(=N)N)NC(=O)[C@@H]1CCCN1C(=O)[C@@H](N)CCCNC(=N)N)C(C)C)C(=O)N[C@@H](C)C(=O)N[C@@H](Cc1ccccc1)C(=O)N[C@@H](CCC(N)=O)C(=O)N[C@H](C(=O)N[C@@H](CO)C(=O)N[C@@H](CO)C(=O)N[C@@H](CC(C)C)C(=O)O)C(C)C [Ac469] (H-RPRPVDHRAGSLRWAIAFQVSSL-OH; N-terminus and C-terminus assumed),MIC,,50 µM
same,bactericidal or bacteriostatic against A. baumannii,,bacteriostatic
same,MBC (μM),[1],bacteriostat
CSCC[C@H](NC(=O)[C@H](CC(C)C)NC(=O)[C@H](CCCCN)NC(=O)[C@H](CCCCN)NC(=O)[C@@H](NC(=O)[C@@H](NC(=O)[C@H](C)NC(=O)[C@H](Cc1ccccc1)NC(=O)[C@H](Cc1ccc(O)cc1)NC(=O)CNC(=O)[C@H](CS)NC(=O)[C@H](Cc1c[nH]cn1)NC(=O)[C@@H]1CCCN1C(=O)CNC(=O)CN)[C@@H](C)O)[C@@H](C)O)C(=O)N[C@@H](CCCNC(=N)N)C(=O)N[C@@H](CCCCN)C(=O)N[C@H](C(=O)N1CCC[C@H]1C(=O)NCC(=O)N[C@@H](CCCNC(=N)N)C(=O)N[C@@H](CC(C)C)C(=O)N[C@H](C(=O)O)C(C)C)C(C)C [Ac330] (H-GGPHCGYFATTKKLMRKVPGRLV-OH; N-terminus and C-terminus assumed),MIC,A. baumannii (Table 8),20 µM
same,MBC,[1],40 µM
same,MIC (μM) for non-amidated Peptide,"non-amidated peptide, strongly inhibitory against A. baumannii (Table 7)",20 µM
CC[C@H](C)[C@H](NC(=O)[C@H](CCC(N)=O)NC(=O)[C@H](CCCNC(=N)N)NC(=O)[C@@H](NC(=O)[C@@H](NC(=O)[C@@H]1CCCN1)C(C)C)C(C)C)C(=O)N[C@@H](CC(C)C)C(=O)N[C@@H](CCCNC(=N)N)C(=O)N[C@@H](CO)C(=O)N[C@@H](CCC(=O)O)C(=O)N[C@@H](Cc1c[nH]c2ccccc12)C(=O)N[C@@H](CCCNC(=N)N)C(=O)N[C@@H](CC(N)=O)C(=O)N[C@@H](Cc1c[nH]c2ccccc12)C(=O)N[C@@H](CCCNC(=N)N)C(=O)N[C@@H](CCCCN)C(=O)N[C@@H](CO)C(=O)N[C@@H](CC(C)C)C(=O)N[C@@H](CCC(=O)O)C(=O)N[C@@H](CCSC)C(=O)N[C@@H](CCCNC(=N)N)C(=O)NCC(=O)N[C@@H](CCCNC(=N)N)C(=O)O [Ac437] (H-PVVRQILRSEWRNWRKSLEMRGR-OH; N-terminus and C-terminus assumed),MIC,,40 µM
CC[C@H](C)[C@H](NC(=O)[C@H](CS)NC(=O)[C@H](CS)NC(=O)[C@H](CCCNC(=N)N)NC(=O)[C@H](CC(=O)O)NC(=O)[C@H](CO)NC(=O)[C@H](CC(C)C)NC(=O)[C@H](CCCNC(=N)N)NC(=O)[C@H](CCCNC(=N)N)NC(=O)[C@H](CC(C)C)NC(=O)[C@H](Cc1ccccc1)NC(=O)CNC(=O)[C@H](CO)NC(=O)[C@@H]1CCCN1C(=O)[C@H](Cc1c[nH]c2ccccc12)NC(=O)[C@@H](NC(=O)[C@@H]1CCCN1)C(C)C)C(=O)N[C@@H](Cc1c[nH]cn1)C(=O)N[C@@H](CO)C(=O)N[C@@H](CCCNC(=N)N)C(=O)N[C@@H](CCC(N)=O)C(=O)N[C@@H](C)C(=O)N[C@@H](CCC(N)=O)C(=O)O [Ac329] (H-PVWPSGFLRRLSDRCCIHSRQAQ-OH; N-terminus and C-terminus assumed),MBC,,39 µM
same,MIC,,30 µM
CC[C@H](C)[C@H](NC(=O)[C@H](CCC(N)=O)NC(=O)[C@H](CCCNC(=N)N)NC(=O)[C@H](CS)NC(=O)[C@@H](NC(=O)[C@H](CCCNC(=N)N)NC(=O)[C@H](CCCNC(=N)N)NC(=O)[C@H](CC(C)C)NC(=O)[C@H](CC(=O)O)NC(=O)[C@H](CCC(=O)O)NC(=O)[C@H](CCCNC(=N)N)NC(=O)[C@H](CC(C)C)NC(=O)[C@H](CCCNC(=N)N)NC(=O)CNC(=O)[C@@H](N)CO)[C@@H](C)CC)C(=O)N[C@@H](CO)C(=O)N[C@@H](C)C(=O)N[C@@H](Cc1ccc(O)cc1)C(=O)N[C@@H](CCCCN)C(=O)N[C@@H](CO)C(=O)N[C@@H](CC(=O)O)C(=O)N[C@@H](CO)C(=O)N[C@@H](CO)C(=O)O [Ac340] (H-SGRLREDLRRICRQISAYKSDSS-OH; N-terminus and C-terminus assumed),MBC,,40 µM
same,MIC,,40 µM
CC(C)C[C@@H](NC(=O)[C@@H](CCCNC(=N)N)NC(=O)[C@H](N)Cc1ccc(O)cc1)C(=O)N[C@H](CC(C)C)C(=O)N[C@H](CCCNC(=N)N)C(=O)N[C@H](CCCCN)C(=O)N[C@@H](C(=O)N[C@@H](C(=O)N[C@H](Cc1ccccc1)C(=O)N[C@H](CS)C(=O)N[C@H](CC(C)C)C(=O)N[C@H](CCCCN)C(=O)N[C@@H](C(=O)N[C@H](CO)C(=O)N[C@H](CC(C)C)C(=O)N[C@@H](C(=O)N[C@H](CCCCN)C(=O)N1CCC[C@@H]1C(=O)N[C@H](Cc1ccccc1)C(=O)N[C@H](Cc1c[nH]cn1)C(=O)N[C@H](Cc1ccccc1)C(=O)N[C@H](Cc1ccc(O)cc1)C(=O)N1CCC[C@@H]1C(=O)O)[C@H](C)O)[C@H](C)O)[C@H](C)O)[C@H](C)O [Ac5r] (H-[dY][dR][dL][dL][dR][dK][dT][dT][dF][dC][dL][dK][dT][dS][dL][dT][dK][dP][dF][dH][dF][dY][dP]-OH; N-terminus and C-terminus assumed),MIC (μM) for amidated peptide,,5 µM
same,MIC (μM) for non-amidated Peptide,,15 µM
CC(C)C[C@H](NC(=O)[C@H](CS)NC(=O)[C@@H](NC(=O)[C@@H](NC(=O)[C@H](Cc1ccccc1)NC(=O)[C@H](Cc1c[nH]c2ccccc12)NC(=O)[C@@H](NC(=O)[C@H](CC(C)C)NC(=O)[C@H](Cc1ccccc1)NC(=O)[C@H](CS)NC(=O)[C@@H](NC(=O)[C@H](CC(N)=O)NC(=O)[C@@H](N)Cc1c[nH]cn1)[C@@H](C)O)[C@@H](C)O)[C@@H](C)O)[C@@H](C)O)C(=O)O [Ac472] (H-HNTCFLTWFTTCL-OH; N-terminus and C-terminus assumed),MIC,,15 µM
same,MIC (μM) for non-amidated Peptide,,15 µM
same,bactericidal or bacteriostatic against A. baumannii,,bacteriostatic
same,MBC (μM),[1],bacteriostat
CC[C@H](C)[C@H](NC(=O)[C@H](CO)NC(=O)[C@H](Cc1c[nH]c2ccccc12)NC(=O)[C@H](CS)NC(=O)[C@H](CCCNC(=N)N)NC(=O)[C@H](CS)NC(=O)[C@@H](NC(=O)[C@@H](NC(=O)[C@@H]1CCCN1C(=O)[C@H](CCCNC(=N)N)NC(=O)[C@H](C)NC(=O)[C@H](C)NC(=O)[C@H](CS)NC(=O)[C@H](CCCNC(=N)N)NC(=O)[C@H](CCCCN)NC(=O)[C@H](CCCNC(=N)N)NC(=O)[C@@H](N)[C@@H](C)O)[C@@H](C)O)[C@@H](C)O)C(=O)NCC(=O)N[C@@H](CCCNC(=N)N)C(=O)N[C@@H](C)C(=O)N[C@@H](Cc1c[nH]c2ccccc12)C(=O)N[C@@H](CCCCN)C(=O)N[C@@H](C)C(=O)O [Ac364] (H-TRKRCAARPTTCRCWSIGRAWKA-OH; N-terminus and C-terminus assumed),MBC,,40 µM
same,MIC,,40 µM
